Drawing on patent US8853259B2, “Metformin derivatives for treating diabetes and diabetes complications” (priority 2013, dated 2014), this text covers hygroscopicity for 1 substance.

A short description of the data set: Hygroscopicity of the isolated solid on exposure to air. It is filed as physicochemical. The note with it: light yellow foamy solid from Method 1; turns into gummy residue on exposure to air. As to the method: Method 1: Metformin free base (1.29 g, 0.010 mol) was taken in methanol (15 mL) and while stirring L-Glutamic acid (0.74 g, […]) was added as solid. Lipoic acid (1.03 g, […]) was separately dissolved in methanol (15 mL) and added to this mixture through a in-line syringe filter (to remove polymeric material, if any). The mixture was continued to stir for 30 min. […] Metformin.L-Glutamic acid.R-Lipoic acid salt (2.9 g) was obtained as light yellow foamy solid. […] The residue was suspended in acetonitrile (30 mL) and stirred for 18 h. Filtered the pale yellow solid and dried in vacuum for 16 h to get 2.32 g of 3. ^1H NMR (200 MHz, D2O) δ 1.15-2.1 (10H, m), δ 2.1-2.42 (5H, m), δ2.88 (12H, s), δ 2.95-3.12 (1H, m) δ 3.48-3.62 (2H, m); ^13C NMR (200 MHz, D2O) δc 25.86, 27.25, 28.68, 33.81, 34.14, 37.66, 38.34, 40.51, 54.95, 56.93, 158.63, 160.28, 174.80, 181.44, 183.81.

With “metformin-L-glutamic acid-R (+) lipoic acid salt”, the hygroscopicity entry was “high hygroscopic”.
